From patent publication EP1348714B1, “Polypeptide useful as anti-allergic/antiasthmatic, methods for the preparation thereof and pharmaceutical compositions containing such polypeptide and their use” (COUNCIL OF SCIENTIFIC AND INDUSTRIAL RESEARCH, priority 2002, dated 2003)
Square brackets hold non-standard residues; d marks the D form. Peptide text beside a SMILES is read from it. Sar = CNCC(=O)O

How the values were obtained:
[1] = tested on: passive cutaneous anaphylaxis (PCA); assay: passive cutaneous anaphylaxis (PCA) test in rats; format: in vivo
[2] = tested on: Sensitised mast cells (Immunological: Egg albumin); assay: mast cell degranulation by egg albumin in sensitised mast cells; format: in vivo, rats; conditions: dose 50.0 pro (10.0 x 5 d) mg/kg x days
[3] = tested on: Normal mast cells (Noninnunological: Comp. 48/80); assay: mast cell degranulation by comp 48/80 in normal mast cells; format: in vivo, rats; conditions: dose 50.0 pro (10.0 x 5 d) mg/kg x days
[4] = tested on: sensitised guinea pig ileum; assay: antigen (egg albumin) induced contraction of sensitised guinea pig ileum (Schultz-Dale phenomenon)
Egg-albumin = assay: aerosol test, egg-albumin challenge in sensitised guinea pigs; format: in vivo; conditions: dose 50 mg/kg (ip)
[5] = other pharmacological studies (cardiovascular, CNS, anti-inflammatory, diuretic); format: in vivo; conditions: up to a dose of 10 mg/kg

Row | SMILES | anti PCA activity ([1]; rat, 50 mg/kg by nasal route) [%] | % Anti-PCA activity ([1]; rats, dose 50.0 mg/kg (IP)) [%] | % Protection [2] [%] | % Protection [3] [%] | % Protection to ileum contraction induced by egg albumin ([4]; concentration 1.0 (unit not given)) | % Protection to ileum contraction induced by egg albumin ([4]; concentration 2.0 (unit not given)) [%] | % Protection to ileum contraction induced by egg albumin ([4]; concentration 3.0 (unit not given)) [%] | % Protection Egg-albumin (Egg-albumin) [%] | cardiovascular, Central Nervous System (CNS), anti-inflammatory, diuretic activities [5]
1 | O=C([O-])c1cc(=O)c2c(OCC(O)COc3cccc4oc(C(=O)[O-])cc(=O)c34)cccc2o1.[Na+].[Na+] [DSCG, disodium cromoglycate] | 81 | 77 | 71 | 72 | No block | 18 | 59 | 64 | 
2 | C[C@H](N)C(=O)NCC(=O)NCC(=O)N[C@@H](CC(=O)O)C(=O)N(C)CC(=O)N[C@@H](CCCCN)C(=O)O [96/199, L-alanyl-glycyl-glycyl-L-aspartyl-sar-L-1ys] (H-AGGD[Sar]K-OH) |  |  |  |  |  |  |  |  | No significant effects
